Measured values as given in article PMC9587990, “Molecular basis for isoform-selective inhibition of presenilin-1 by MRK-560” (Nature Communications, 2022).
“And” between values parts separate entries of the source, which are not always exact repeats. Equal entries are not always repeated. Where two headings read alike, the source gives them in different places.

Assays:
Experiment in all cases: in vitro cleavage assay, Aβ40 production by AlphaLISA
Format in all cases: biochemical
[1] = molecular target: T1, PS1 L282I γ-secretase complex (Homo sapiens, UniProt P49768, L282I); details: for remaining activity at 0.002 µM / remaining activity at 0.01 µM / remaining activity at 0.04 µM / remaining activity at 0.2 µM / remaining activity at 1 µM / remaining activity at 10 µM: 4 h; for remaining activity at 0.002 µM / remaining activity at 0.01 µM / remaining activity at 0.04 µM / remaining activity at 0.2 µM / remaining activity at 1 µM / remaining activity at 10 µM / Caculated Aβ40 production / raw data from α-Lisa reading: PS1 L282I
T1 construct: made in house
Experimental: (§1) In total we generated six variants, including single and double residue swapping of Thr281/Leu282 in PS1 with Pro287/Ile288 in PS2, respectively. MRK-560 response to the six PS1/PS2 mutant-containing complexes, each purified to homogeneity, was examined in the in vitro cleavage assay (Fig. 4). All proteins used for the activity assay were sub-cloned, expressed and purified as described. Protein concentration was determined using the Bradford method. […] The cleavage reaction was conducted at 37 °C for 4 h. The cleaved products of these substrates were detected using a monoclonal antibody (1:1000 dilution, CW0299, CWBio) against the C-terminal Myc tag. Aβ40 production was detected using the AlphaLISA assay (PerkinElmer) as described. The IC50 values and the inhibition curves were calculated using Prism 8.0. Statistical analysis of Aβ40 was performed using Prism 8 (GraphPad Software, San Diego, CA, USA). IC50 were determined by a four-parameter logistic regression. The statistical details can be found in Figs. 1, 4 and legends. Data are expressed as mean ± SD.

[2] = molecular target: T2, PS1 T281P γ-secretase complex (Homo sapiens, UniProt P49768, T281P); details: for remaining activity at 0.002 µM / remaining activity at 0.01 µM / remaining activity at 0.04 µM / remaining activity at 0.2 µM / remaining activity at 1 µM / remaining activity at 10 µM: 4 h; for remaining activity at 0.002 µM / remaining activity at 0.01 µM / remaining activity at 0.04 µM / remaining activity at 0.2 µM / remaining activity at 1 µM / remaining activity at 10 µM / Caculated Aβ40 production / raw data from α-Lisa reading: PS1 T281P
T2 construct: made in house
Experimental: as §1

[3] = molecular target: T3, PS2 I288L γ-secretase complex (Homo sapiens, UniProt P49810, I288L); details: for remaining activity at 0.002 µM / remaining activity at 0.04 µM / remaining activity at 0.2 µM / remaining activity at 1 µM / remaining activity at 10 µM / remaining activity at 20 µM: 4 h; for remaining activity at 0.04 µM: MRK-560 40 nM; for remaining activity at 0.2 µM: MRK-560 200 nM; for remaining activity at 1 µM: MRK-560 1 μM; for remaining activity at 10 µM: MRK-560 10 μM; for remaining activity at 20 µM: MRK-560 20 μM
T3 construct: made in house
Experimental: as §1

[4] = MRK-560 2 nM, mean of 3 replicates, read-out: Normalized production (control=1), Mean
[5] = MRK-560 2 nM, replicates, read-out: Normalized production (control=1)
[6] = MRK-560 10 nM, mean of 3 replicates, read-out: Normalized production (control=1), Mean
[7] = MRK-560 10 nM, replicates, read-out: Normalized production (control=1)
[8] = MRK-560 40 nM, mean of 3 replicates, read-out: Normalized production (control=1), Mean
[9] = MRK-560 40 nM, replicates, read-out: Normalized production (control=1)
[10] = MRK-560 200 nM, mean of 3 replicates, read-out: Normalized production (control=1), Mean
[11] = MRK-560 200 nM, replicates, read-out: Normalized production (control=1)
[12] = MRK-560 1 μM, mean of 3 replicates, read-out: Normalized production (control=1), Mean
[13] = MRK-560 1 μM, replicates, read-out: Normalized production (control=1)
[14] = MRK-560 10 μM, mean of 3 replicates, read-out: Normalized production (control=1), Mean
[15] = MRK-560 10 μM, replicates, read-out: Normalized production (control=1)
[16] = mean of 3 replicates, read-out: Normalized production (control=1), Mean
[17] = replicates, read-out: Normalized production (control=1)

O=S(=O)(NC1CCC(c2cc(F)ccc2F)(S(=O)(=O)c2ccc(Cl)cc2)CC1)C(F)(F)F (stereo not drawn) [MRK-560, N-[cis-4-[(4-chlorophenyl)sulfonyl]-4-(2,5-difluorophenyl)cyclohexyl]-1,1,1-trifluoromethanesulfonamide]
IC50 [1]: 90 ± 10 nM
remaining activity at 0.002 µM [1, 4]: 111%
remaining activity at 0.002 µM [1, 5]: 110%
remaining activity at 0.01 µM [1, 6]: 108%
remaining activity at 0.01 µM [1, 7]: 104%
remaining activity at 0.04 µM [1, 8]: 83.5%
remaining activity at 0.04 µM [1, 9]: 83.1%
remaining activity at 0.2 µM [1, 10]: 28.8%
remaining activity at 0.2 µM [1, 11]: 28.2%
remaining activity at 1 µM [1, 12]: 3.17%
remaining activity at 1 µM [1, 13]: 3.28%
remaining activity at 10 µM [1, 14]: 0.83%
remaining activity at 10 µM [1, 15]: 0.9%
Caculated Aβ40 production ([1]; MRK-560 2 nM, replicates): 281.9088 and 286.0465 and 285.6579
raw data from α-Lisa reading ([1]; MRK-560 2 nM, replicates): 44163 and 44760 and 44704
Caculated Aβ40 production ([1]; MRK-560 10 nM, replicates): 268.0187 and 289.2618 and 277.4973
raw data from α-Lisa reading ([1]; MRK-560 10 nM, replicates): 42149 and 45223 and 43525
Caculated Aβ40 production ([1]; MRK-560 40 nM, replicates): 213.5518 and 216.6350 and 213.7318
raw data from α-Lisa reading ([1]; MRK-560 40 nM, replicates): 34102 and 34564 and 34129
Caculated Aβ40 production ([1]; MRK-560 200 nM, replicates): 72.5045 and 76.2274 and 73.8042
raw data from α-Lisa reading ([1]; MRK-560 200 nM, replicates): 12089 and 12693 and 12300
Caculated Aβ40 production ([1]; MRK-560 1 μM, replicates): 8.4328 and 8.0651 and 7.9702
raw data from α-Lisa reading ([1]; MRK-560 1 μM, replicates): 1487 and 1425 and 1409
Caculated Aβ40 production ([1]; MRK-560 10 μM, replicates): 2.3045 and 1.9913 and 2.1331
raw data from α-Lisa reading ([1]; MRK-560 10 μM, replicates): 452 and 399 and 423
IC50 [2]: 55 ± 6 nM
remaining activity at 0.002 µM [2, 4]: 99.3%
remaining activity at 0.002 µM [2, 5]: 100%
remaining activity at 0.01 µM [2, 6]: 92.8%
remaining activity at 0.01 µM [2, 7]: 94.3%
remaining activity at 0.04 µM [2, 8]: 62.2%
remaining activity at 0.04 µM [2, 9]: 65.5%
remaining activity at 0.2 µM [2, 10]: 10.6%
remaining activity at 0.2 µM [2, 11]: 11%
remaining activity at 1 µM [2, 12]: 1.23%
remaining activity at 1 µM [2, 13]: 1.29%
remaining activity at 10 µM [2, 14]: 0.61%
remaining activity at 10 µM [2, 15]: 0.59%
Caculated Aβ40 production ([2]; MRK-560 2 nM, replicates): 345.9981 and 336.9974 and 315.8225
raw data from α-Lisa reading ([2]; MRK-560 2 nM, replicates): 52003 and 49017 and 53262
Caculated Aβ40 production ([2]; MRK-560 10 nM, replicates): 309.2203 and 316.1610 and 308.6161
raw data from α-Lisa reading ([2]; MRK-560 10 nM, replicates): 49065 and 47993 and 48079
Caculated Aβ40 production ([2]; MRK-560 40 nM, replicates): 209.7683 and 219.6031 and 196.3837
raw data from α-Lisa reading ([2]; MRK-560 40 nM, replicates): 35008 and 31515 and 33534
Caculated Aβ40 production ([2]; MRK-560 200 nM, replicates): 35.0895 and 36.8617 and 34.7461
raw data from α-Lisa reading ([2]; MRK-560 200 nM, replicates): 6240 and 5889 and 5946
Caculated Aβ40 production ([2]; MRK-560 1 μM, replicates): 4.0253 and 4.3330 and 4.0016
raw data from α-Lisa reading ([2]; MRK-560 1 μM, replicates): 795 and 739 and 743
Caculated Aβ40 production ([2]; MRK-560 10 μM, replicates): 2.0149 and 1.9676 and 2.1390
raw data from α-Lisa reading ([2]; MRK-560 10 μM, replicates): 395 and 424 and 403
remaining activity at 0.002 µM [3, 4]: 110%
remaining activity at 0.002 µM [3, 5]: 110%
remaining activity at 0.04 µM [3, 16]: 65.9%
remaining activity at 0.04 µM [3, 17]: 68%
remaining activity at 0.2 µM [3, 16]: 17.7%
remaining activity at 0.2 µM [3, 17]: 17.9%
remaining activity at 1 µM [3, 16]: 5.3%
remaining activity at 1 µM [3, 17]: 5.2%
remaining activity at 10 µM [3, 16]: 1.39%
remaining activity at 10 µM [3, 17]: 1.35%
remaining activity at 20 µM [3, 16]: 1.69%
remaining activity at 20 µM [3, 17]: 1.61%
Caculated Aβ40 production ([3]; MRK-560 2 nM, replicates): 534.8273 and 537.0982 and 529.5442
